# Where “and” joins values, the source holds several entries; their conditions need not be identical. Identical values can stand only once.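 48-hour exposure; five concentrations; linearly interpolated endpoints. Here, GI50 denotes the concentration required for 50% inhibition of growth. TGI marks complete inhibition of growth.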
# Experiments:
# Experiment in all cases: inhibition of tumour cell growth, NCI panel, 48 h
# [1] = test system: U251 CNS
# [2] = test system: CCRF-CEM leukemia
# [3] = test system: SK-MEL-5 melanoma
# [4] = test system: SK-OV-3 ovarian
# [5] = test system: SN12C renal
# [6] = test system: EKVX NSCLC
# [7] = test system: COLO 205 colon
# [8] = test system: NCI-H460 lung
# [9] = test system: HL-60(TB) leukemia
# [10] = test system: TK-10 renal
SMILES,GI50 [1],TGI [1],GI50 [2],TGI [2],GI50 [3],TGI [3],GI50 [4],TGI [4],GI50 [5],TGI [5],GI50 [6],TGI [6],GI50 [7],TGI [7],GI50 [8],TGI [8],GI50 [9],TGI [9],GI50 [10],TGI [10]
CCOc1ccc2nc(-c3cccc(OCC(=O)NC(C)C)c3)nc(Nc3ccc(-c4cn[nH]c4)cc3)c2c1,0.431 µM,2.15 µM,0.315 µM,> 51.6 µM,1.17 µM,2.58 µM,4.53 µM,13 µM,1.06 µM,3.76 µM,1.22 µM,8.34 µM,0.686 µM,5.4 µM,0.34 µM,1.66 µM,0.661 µM,3.41 µM,1.89 µM,5.2 µM
CSc1n(Cc2ccc3ccccc3c2)c(C)c[n+]1Cc1ccc2ccccc2c1,0.422 µM,1.65 µM,0.571 µM,2.31 µM,0.389 µM,1.32 µM,1.18 µM,2.61 µM,0.523 µM,1.87 µM,1.4 µM,3.83 µM,0.352 µM,1.34 µM,0.802 µM,2.18 µM,0.319 µM,1.12 µM,1.41 µM,2.88 µM
COc1ccc2c3c(c4ccccc4cc13)C(=O)N(CCN(C)CCN)C2=O,0.0776 µM,1.21 µM,0.021 µM,0.22 µM,0.186 µM,1.28 µM,0.0692 µM,0.806 µM,0.0562 µM,0.911 µM,0.538 µM,2.06 µM,0.0843 µM,1.27 µM,0.0129 µM,0.323 µM,0.0272 µM,0.361 µM,0.13 µM,1.31 µM
CN(C)C(=S)/N=c1\ss/c(=N\C(=S)N(C)C)n1-c1ccc(Cl)cc1,–,> 100 µM,–,> 100 µM,–,–,–,> 100 µM,–,> 100 µM,–,> 100 µM,–,> 100 µM,–,> 100 µM,–,> 100 µM,–,> 100 µM
CCOC(=O)[C@H]1CSC[C@@H](C(=O)OC)N1,–,> 100 µM,–,> 100 µM,–,> 100 µM,–,> 100 µM,–,> 100 µM,–,> 100 µM,–,> 100 µM,–,> 100 µM,–,> 100 µM,–,> 100 µM
CCOC(=O)NC1=C(N2CC2)C(=O)C(NC(=O)OCC)=C(N2CC2)C1=O,3.91 µM,20 µM and 10.8 µM and 9.77 µM,3.47 µM and 1.88 µM,9.8 µM and 16.1 µM and 12.1 µM,4.7 µM,15 µM and 9.97 µM and 7.95 µM,9.93 µM and 8.49 µM,25 µM and 20.3 µM and 31.8 µM,3.3 µM and 3.06 µM,25 µM and 14.2 µM and 7.15 µM,24.2 µM,25 µM and 16.1 µM,15.1 µM and 8.56 µM,25 µM and 33 µM and 51.1 µM,0.505 µM and 0.721 µM,20 µM and 16.2 µM and 31 µM,1.85 µM and 0.403 µM,11 µM and 4 µM and 1.49 µM,> 25 µM,> 25 µM and 65.1 µM
Nc1nc2ccc3[nH]ncc3c2c2c1CCCC2,2.7 µM,13.4 µM,2.7 µM,12.5 µM,1.54 µM,4.08 µM,2.94 µM,14.7 µM,1.91 µM,8.93 µM,1.54 µM,5.38 µM,2.09 µM,10.1 µM,1.6 µM,4.56 µM,2.31 µM,5.72 µM,2 µM,14.5 µM
O=C(NCCCCCCNC(=O)n1cc(F)c(=O)[nH]c1=O)NCCCOCCOCCOCCOCCOCCOCCOCCOCCOCCOCCOCCOCCOCCOCCOCCOCCOCCOCCOCCOCCOCCCNC(=O)C(O)C(O)C(OC1OC(CO)C(O)C(O)C1O)C(O)CO (stereo not drawn),–,> 100 µM,–,> 100 µM,–,> 100 µM,–,> 100 µM,–,> 100 µM,–,> 100 µM,–,> 100 µM,–,> 100 µM,–,> 100 µM,–,> 100 µM
COc1ccc2nc3cc([N+](=O)[O-])ccc3c(NCCCN(CCO)CCO)c2c1,3.57 µM,13.4 µM,3.78 µM,14.6 µM,1.8 µM,4.69 µM,12.7 µM,17.2 µM,3.92 µM,14.7 µM,7.48 µM,18.4 µM,2.64 µM,9.12 µM,2.18 µM,8.75 µM,2.56 µM,22.7 µM,5.95 µM,22 µM
CC(C)[NH-].CC(C)[NH-].O.O.[Cl][Pt+2][Cl],27.3 µM,107 µM,6.59 µM,97.7 µM,21.2 µM,59.9 µM,28.6 µM,92.6 µM,35.9 µM,133 µM,66.7 µM,203 µM,30.1 µM,98.7 µM,8.8 µM,62.3 µM,15.3 µM,83.7 µM,190 µM,467 µM
Fc1cccc(CSc2ncnc3c2ncn3C2CCCS2)c1 (stereo not drawn),–,42.8 µM,–,46.6 µM,–,22.5 µM,–,> 100 µM,–,82 µM,–,81.2 µM,–,24.4 µM,–,22.7 µM,–,32.1 µM,–,> 100 µM
O=C(O)c1ccc2c3c(ncnc13)-c1ccccc1C2=O,4.08 µM,> 100 µM,> 84.6 µM,> 100 µM,1.34 µM,2.65 µM,> 89.5 µM,> 100 µM,4.26 µM,> 87.2 µM,51.6 µM,> 100 µM,3.25 µM,16.7 µM,2.43 µM,6.02 µM,27.3 µM,> 100 µM,21.9 µM,> 100 µM
Cc1cccc(Cl)c1NC(=O)c1cnc(Nc2cc(N3CCOCC3)cc(N3CCOCC3)c2)s1,> 3.85 µM,> 10 µM,> 6.27 µM,> 10 µM,> 8.96 µM,> 10 µM,0.0178 µM,1.6 µM,0.0535 µM,> 10 µM,0.213 µM,> 10 µM,0.122 µM,> 8.09 µM,> 5.16 µM,> 10 µM,9.98 µM,> 10 µM,0.00622 µM,0.0729 µM
O=C(O)C(C(=O)C(=O)C(C(=O)O)c1ccc(Cl)cc1)c1ccc(Cl)cc1 (stereo not drawn),–,12 µM,–,10 µM,–,–,–,18.2 µM,–,10.8 µM,–,13.3 µM,–,18.8 µM,–,13.7 µM,–,6.82 µM,–,12.3 µM
